Earlier results on four compounds are cited in patent US6562842B2, “Protease inhibitors” (SmithKline Beecham Corporation, priority 1995, dated 2003).

Series [1] deals with bone resorption. The conditions noted are these: mouse bone organ culture system.
Series [2] has as its system bone resorption. The conditions noted are these: measured by acute changes in serum calcium; rats on calcium deficient diets.
Series [3] deals with bone resorption. The conditions noted are these: mouse calvariae.

In the case of `C[C@H](NC(=O)[C@H](Cc1ccccc1)NC(=O)OCc1ccccc1)C(=O)C=[N+]=[N-]` [Z-Phe-Ala-CHN2], in series [1], the “prevention of bone resorption” value is reported as “prevent bone resorption”.

On to `CC(=O)N[C@@H](CC(C)C)C(=O)N[C@@H](CC(C)C)C(=O)N[C@H](C=O)CCCNC(=N)N` [leupeptin], for which the “prevention of bone resorption” value in series [1] is “prevent bone resorption”. Besides, the “prevention of bone resorption in vivo” value in series [2] is on record as “effective at preventing bone resorption in vivo”.

`CC(C)C[C@H](NC(=O)[C@H]1O[C@@H]1C(=O)O)C(=O)NCCCCN=C(N)N` [Example E-64, E-64]: the “prevention of bone resorption in vivo” value in series [2] is listed as “effective at preventing bone resorption in vivo”.

On to cystatin, for which, in series [3], the “inhibition of PFH stimulated bone resorption” value is listed as “inhibits PFH stimulated bone resorption”.
